Measurements from publication PMC4388511 (PLoS ONE, 2015).
Like-named read-outs stand apart in the source and are kept apart here.

Legend:
[1] = molecular target: T1, serotonin 5-HT2C receptor (Homo sapiens, UniProt P28335); assay: facilitation of morphine-induced MOP-YFP endocytosis in HEK293 cells co-expressing 5-HT2C, at […]; format: cell-based
T1 construct: gene HTR2C; c-myc-5-HT2C-Cerulean

[2] = molecular target: T1, serotonin 5-HT2C receptor; assay: as above; format: cell-based; remark: listed apart in the source

T1 sequence (P28335 33-458): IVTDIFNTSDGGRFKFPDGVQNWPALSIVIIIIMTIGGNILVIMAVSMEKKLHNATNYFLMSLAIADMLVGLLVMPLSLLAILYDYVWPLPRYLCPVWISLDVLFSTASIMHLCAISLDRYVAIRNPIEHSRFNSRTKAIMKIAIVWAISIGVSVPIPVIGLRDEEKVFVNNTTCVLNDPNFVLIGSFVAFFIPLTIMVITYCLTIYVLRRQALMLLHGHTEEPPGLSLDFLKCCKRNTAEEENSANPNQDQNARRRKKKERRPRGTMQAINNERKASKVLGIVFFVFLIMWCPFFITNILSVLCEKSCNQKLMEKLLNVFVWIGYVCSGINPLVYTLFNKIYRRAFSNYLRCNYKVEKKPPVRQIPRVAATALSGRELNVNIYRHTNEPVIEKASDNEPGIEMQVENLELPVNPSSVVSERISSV
T1 sequence (P35372 whole entry partner): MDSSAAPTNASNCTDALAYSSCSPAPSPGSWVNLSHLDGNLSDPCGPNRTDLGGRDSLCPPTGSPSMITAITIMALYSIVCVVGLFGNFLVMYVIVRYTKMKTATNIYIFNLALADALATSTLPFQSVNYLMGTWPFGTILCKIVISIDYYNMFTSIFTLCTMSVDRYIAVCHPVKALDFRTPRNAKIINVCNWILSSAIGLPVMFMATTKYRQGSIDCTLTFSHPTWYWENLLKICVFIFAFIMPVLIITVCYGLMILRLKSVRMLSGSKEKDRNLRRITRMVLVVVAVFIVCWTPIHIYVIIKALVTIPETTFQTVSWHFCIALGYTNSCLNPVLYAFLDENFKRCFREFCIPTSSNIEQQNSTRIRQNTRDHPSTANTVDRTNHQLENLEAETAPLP

| Compound | Emax (no. vesicles/cell) [1] | Emax (no. vesicles/cell) [2] |
| --- | --- | --- |
| COc1cc(CC(C)N)c(OC)cc1I (racemic) [DOI] | 8.18 ± 1.31 vesicles/cell (Emax, with morphine) |  |
| O=C1Nc2cc(Cl)c(Cl)cc2N2CCNCC12 (centres unmarked) [WAY161503] |  | 9.08 ± 1.88 vesicles/cell (Emax, with morphine) |
